From patent US9932637B2, “Genetic polymorphisms associated with cardiovascular disorders and drug response, methods of detection and uses thereof” (CELERA CORPORATION, priority 2003, dated 2018)

System: patients with prior myocardial infarction (CARE study)
Experiment: CARE: association of SNPs with pravastatin treatment in cardiovascular events prevention (logistic regression, odds ratio pravastatin vs placebo by genotype; Table 8)
Assay type: in vivo, human
Details: All Patients; for Total Cardiovascular Disease Events, n/total (%) / Non-fatal MI (def & prob), n/total (%) / Fatal/Non-fatal MI (def & prob), n/total (%) / Fatal/Non-fatal Atherosclerotic CV Disease, n/total (%) / Hosp. for Cardiovascular Disease, n/total (%) / Total Mortality, n/total (%): Prava
Source text: In order to identify genetic markers associated with acute coronary events (e.g. MI, stroke, unstable angina, congestive heart failure, etc.) or response to statin treatment for the prevention of coronary events, samples from the Cholesterol and Recurrent Events (CARE) study (a randomized multicentral double-blinded trial on secondary prevention of acute coronary events with pravastatin) (Sacks et al., 1991, Am. J. Cardiol. 68: 1436-1446) were genotyped. A well-documented myocardial infarction (MI) was one of the enrollment criteria for entry into the CARE study. Patients were enrolled in the CARE trial from 80 participating study centers. […] Patients were randomized to receive either 40 mg of pravastatin once daily or a matching placebo. The primary endpoint of the trial was death from coronary heart disease and the median duration of follow-up was 5.0 years (range, 4.0 to 6.2 years). […] Secondary endpoints of other related cardiovascular or metabolic disease events, and changes in clinical variables were also recorded in pravastatin-treated and placebo groups. All individuals included in the study had signed a written informed consent form and the study protocol was approved by the respective Institutional Review Boards (IRBs).
For genotyping SNPs in CARE patient samples, DNA was extracted from blood samples using conventional DNA extraction methods such as the QIA-amp kit from Qiagen. Genotypes were obtained on an ABI PRISM® 7900HT Sequence Detection PCR system (Applied Biosystems, Foster City, Calif.) by kinetic allele-specific PCR, similar to the method described by Germer et al. (Germer S., Holland M. J., Higuchi R. 2000, Genome Res. 10: 258-266).
Statistical analysis for association of SNPs with pravastatin treatment in cardiovascular events prevention (Table 8) was carried out using an overall logistic regression model that included an intercept, a parameter for the effect of a genotype containing two rare alleles versus a genotype containing no rare alleles, a parameter for the effect of a genotype containing one rare allele versus a genotype containing no rare alleles, a parameter for the effect of use of pravastatin versus the use of placebo, and parameters for the interaction effects between SNP genotypes and pravastatin use. The test of the overall model is a chi-square test with two degrees of freedom for analyses containing all three genotypes, and one degree of freedom for analyses containing two genotypes.
Effect sizes were estimated through odds ratios (pravastatin group versus placebo) for carriers of each genotype (groups of 0, 1, and 2 minor allele carriers). The effect was considered to be significant if p-value for testing whether any of the interactions between SNP genotypes and pravastatin use were <0.05. […] Odds ratios less than one indicate that the specific SNP allele has a protective effect and odds ratios greater than one indicate that the specific SNP allele has an adverse effect.

[1] = HLA-DPB1 hCV25651174, Coronary Artery Bypass or Revascularization
[2] = HLA-DPB1 hCV25651174, Fatal CHD/Definite Non-fatal MI
[3] = HLA-DPB1 hCV25651174, Fatal/Non-fatal Atherosclerotic CV Disease
[4] = HLA-DPB1 hCV25651174, Fatal/Non-fatal MI (def & prob)
[5] = HLA-DPB1 hCV25651174, Hosp. for Cardiovascular Disease
[6] = HLA-DPB1 hCV25651174, Non-fatal MI (def & prob)
[7] = HLA-DPB1 hCV25651174, Total Cardiovascular Disease Events
[8] = HLA-DPB1 hCV25651174, Total Coronary Heart Disease Events
[9] = ICAM1 hCV8726337, Fatal/Non-fatal MI (def & prob)
[10] = ICAM1 hCV8726337, Non-fatal MI (def & prob)
[11] = ICAM3 hCV25473653, Fatal/Non-fatal Atherosclerotic CV Disease
[12] = ICAM3 hCV25473653, Total Cardiovascular Disease Events
[13] = IGF2R hCV2200985, Hosp. for Cardiovascular Disease

CC[C@H](C)C(=O)O[C@H]1C[C@H](O)C=C2C=C[C@H](C)[C@H](CC[C@@H](O)C[C@@H](O)CC(=O)O)[C@H]21 [pravastatin]
Total Cardiovascular Disease Events, n/total (%) (HLA-DPB1 hCV25651174, 2 Rare Alleles, n/total 64/144): (44.4%) | Prava vs. Placebo Odds Ratio, 0 Rare Alleles [1]: 0.68 | Prava vs. Placebo Odds Ratio, 1 Rare Alleles [1]: 0.58 | Prava vs. Placebo Odds Ratio, 2 Rare Alleles [1]: 2.11 | Prava vs. Placebo Odds Ratio, 0 Rare Alleles [2]: 0.57 | Prava vs. Placebo Odds Ratio, 1 Rare Alleles [2]: 0.74 | Prava vs. Placebo Odds Ratio, 2 Rare Alleles [2]: 1.77 | Prava vs. Placebo Odds Ratio, 0 Rare Alleles [3]: 0.66 | Prava vs. Placebo Odds Ratio, 1 Rare Alleles [3]: 0.78 | Prava vs. Placebo Odds Ratio, 2 Rare Alleles [3]: 1.60 | Prava vs. Placebo Odds Ratio, 0 Rare Alleles [4]: 0.54 | Prava vs. Placebo Odds Ratio, 1 Rare Alleles [4]: 0.67 | Prava vs. Placebo Odds Ratio, 2 Rare Alleles [4]: 1.97 | Prava vs. Placebo Odds Ratio, 0 Rare Alleles [5]: 0.70 | Prava vs. Placebo Odds Ratio, 1 Rare Alleles [5]: 0.70 | Prava vs. Placebo Odds Ratio, 2 Rare Alleles [5]: 1.42 | Prava vs. Placebo Odds Ratio, 0 Rare Alleles [6]: 0.59 | Prava vs. Placebo Odds Ratio, 1 Rare Alleles [6]: 0.68 | Prava vs. Placebo Odds Ratio, 2 Rare Alleles [6]: 2.23 | Prava vs. Placebo Odds Ratio, 0 Rare Alleles [7]: 0.69 | Prava vs. Placebo Odds Ratio, 1 Rare Alleles [7]: 0.71 | Prava vs. Placebo Odds Ratio, 2 Rare Alleles [7]: 1.35 | Prava vs. Placebo Odds Ratio, 0 Rare Alleles [8]: 0.69 | Prava vs. Placebo Odds Ratio, 1 Rare Alleles [8]: 0.73 | Prava vs. Placebo Odds Ratio, 2 Rare Alleles [8]: 1.81 | Non-fatal MI (def & prob), n/total (%) (ICAM1 hCV8726337, 0 Rare Alleles, n/total 28/495): (5.7%) | Fatal/Non-fatal MI (def & prob), n/total (%) (ICAM1 hCV8726337, 0 Rare Alleles, n/total 31/495): (6.3%) | Non-fatal MI (def & prob), n/total (%) (ICAM1 hCV8726337, 1 Rare Allele, n/total 76/736): (10.3%) | Fatal/Non-fatal MI (def & prob), n/total (%) (ICAM1 hCV8726337, 1 Rare Allele, n/total 84/736): (11.4%) | Non-fatal MI (def & prob), n/total (%) (ICAM1 hCV8726337, 2 Rare Alleles, n/total 30/282): (10.6%) | Fatal/Non-fatal MI (def & prob), n/total (%) (ICAM1 hCV8726337, 2 Rare Alleles, n/total 31/282): (11.0%) | Prava vs. Placebo Odds Ratio, 0 Rare Alleles [9]: 0.39 | Prava vs. Placebo Odds Ratio, 1 Rare Alleles [9]: 0.85 | Prava vs. Placebo Odds Ratio, 2 Rare Alleles [9]: 0.77 | Prava vs. Placebo Odds Ratio, 0 Rare Alleles [10]: 0.39 | Prava vs. Placebo Odds Ratio, 1 Rare Alleles [10]: 0.83 | Prava vs. Placebo Odds Ratio, 2 Rare Alleles [10]: 0.94 | Fatal/Non-fatal Atherosclerotic CV Disease, n/total (%) (ICAM3 hCV25473653, 0 Rare Alleles, n/total 299/924): (32.4%) | Total Cardiovascular Disease Events, n/total (%) (ICAM3 hCV25473653, 0 Rare Alleles, n/total 376/924): (40.7%) | Fatal/Non-fatal Atherosclerotic CV Disease, n/total (%) (ICAM3 hCV25473653, 1 Rare Allele, n/total 191/511): (37.4%) | Total Cardiovascular Disease Events, n/total (%) (ICAM3 hCV25473653, 1 Rare Allele, n/total 230/511): (45.0%) | Fatal/Non-fatal Atherosclerotic CV Disease, n/total (%) (ICAM3 hCV25473653, 2 Rare Alleles, n/total 14/70): (20.0%) | Total Cardiovascular Disease Events, n/total (%) (ICAM3 hCV25473653, 2 Rare Alleles, n/total 19/70): (27.1%) | Prava vs. Placebo Odds Ratio, 0 Rare Alleles [11]: 0.71 | Prava vs. Placebo Odds Ratio, 1 Rare Alleles [11]: 0.97 | Prava vs. Placebo Odds Ratio, 2 Rare Alleles [11]: 0.37 | Prava vs. Placebo Odds Ratio, 0 Rare Alleles [12]: 0.71 | Prava vs. Placebo Odds Ratio, 1 Rare Alleles [12]: 0.93 | Prava vs. Placebo Odds Ratio, 2 Rare Alleles [12]: 0.37 | Hosp. for Cardiovascular Disease, n/total (%) (IGF2R hCV2200985, 0 Rare Alleles, n/total 465/1175): (39.6%) | Hosp. for Cardiovascular Disease, n/total (%) (IGF2R hCV2200985, 1 Rare Allele, n/total 137/316): (43.4%) | Hosp. for Cardiovascular Disease, n/total (%) (IGF2R hCV2200985, 2 Rare Alleles, n/total 5/24): (20.8%) | Prava vs. Placebo Odds Ratio, 0 Rare Alleles [13]: 0.75 | Prava vs. Placebo Odds Ratio, 1 Rare Alleles [13]: 0.88 | Prava vs. Placebo Odds Ratio, 2 Rare Alleles [13]: 0.12 | Total Mortality, n/total (%) (IL1A hCV9546471, 0 Rare Alleles, n/total 52/759): (6.9%) | Total Mortality, n/total (%) (IL1A hCV9546471, 1 Rare Allele, n/total 28/617): (4.5%) | Total Mortality, n/total (%) (IL1A hCV9546471, 2 Rare Alleles, n/total 4/132): (3.0%) | Prava vs. Placebo Odds Ratio, 0 Rare Alleles (IL1A hCV9546471, Total Mortality): 1.40
